Experimental data as given in ChEMBL document CHEMBL3596188, “Synthesis and structure-activity relationship of aminoarylthiazole derivatives as correctors of the chloride transport defect in cystic fibrosis” (Eur J Med Chem, 2015).
Activity calls are given as the source filed them.

Tests used:
Type in all cases: cell-based
[1] = test system: Cystic fibrosis transmembrane conductance regulator (Homo sapiens), P13569 [F508del]; experiment: Corrector activity at CFTR F508del mutant (unknown origin) expressed in human CFBE41o cells assessed as iodide influx at 10 uM after 24 hrs by HS-YFP assay
[2] = molecular target: Cystic fibrosis transmembrane conductance regulator (Homo sapiens, UniProt P13569, F508DEL); experiment: (§1) Potentiator activity at CFTR F508del mutant (unknown origin) expressed in human CFBE41o cells assessed as increase in iodine influx measured after 30 mins incubation following rescue of F508del-CFTR by low temperature for 24 hrs by HS-YFP assay
[3] = molecular target: T1, Cystic fibrosis transmembrane conductance regulator (Homo sapiens, UniProt P13569); experiment: Corrector activity at CFTR F508del mutant (unknown origin) expressed in human CFBE41o cells assessed as iodide influx after 24 hrs by HS-YFP assay; settings: cfbe41o
[4] = molecular target: T1, Cystic fibrosis transmembrane conductance regulator; experiment: as §1; settings: cfbe41o

Cystic fibrosis transmembrane conductance regulator (Homo sapiens), P13569 [F508del], sequence (P13569 as listed by the source): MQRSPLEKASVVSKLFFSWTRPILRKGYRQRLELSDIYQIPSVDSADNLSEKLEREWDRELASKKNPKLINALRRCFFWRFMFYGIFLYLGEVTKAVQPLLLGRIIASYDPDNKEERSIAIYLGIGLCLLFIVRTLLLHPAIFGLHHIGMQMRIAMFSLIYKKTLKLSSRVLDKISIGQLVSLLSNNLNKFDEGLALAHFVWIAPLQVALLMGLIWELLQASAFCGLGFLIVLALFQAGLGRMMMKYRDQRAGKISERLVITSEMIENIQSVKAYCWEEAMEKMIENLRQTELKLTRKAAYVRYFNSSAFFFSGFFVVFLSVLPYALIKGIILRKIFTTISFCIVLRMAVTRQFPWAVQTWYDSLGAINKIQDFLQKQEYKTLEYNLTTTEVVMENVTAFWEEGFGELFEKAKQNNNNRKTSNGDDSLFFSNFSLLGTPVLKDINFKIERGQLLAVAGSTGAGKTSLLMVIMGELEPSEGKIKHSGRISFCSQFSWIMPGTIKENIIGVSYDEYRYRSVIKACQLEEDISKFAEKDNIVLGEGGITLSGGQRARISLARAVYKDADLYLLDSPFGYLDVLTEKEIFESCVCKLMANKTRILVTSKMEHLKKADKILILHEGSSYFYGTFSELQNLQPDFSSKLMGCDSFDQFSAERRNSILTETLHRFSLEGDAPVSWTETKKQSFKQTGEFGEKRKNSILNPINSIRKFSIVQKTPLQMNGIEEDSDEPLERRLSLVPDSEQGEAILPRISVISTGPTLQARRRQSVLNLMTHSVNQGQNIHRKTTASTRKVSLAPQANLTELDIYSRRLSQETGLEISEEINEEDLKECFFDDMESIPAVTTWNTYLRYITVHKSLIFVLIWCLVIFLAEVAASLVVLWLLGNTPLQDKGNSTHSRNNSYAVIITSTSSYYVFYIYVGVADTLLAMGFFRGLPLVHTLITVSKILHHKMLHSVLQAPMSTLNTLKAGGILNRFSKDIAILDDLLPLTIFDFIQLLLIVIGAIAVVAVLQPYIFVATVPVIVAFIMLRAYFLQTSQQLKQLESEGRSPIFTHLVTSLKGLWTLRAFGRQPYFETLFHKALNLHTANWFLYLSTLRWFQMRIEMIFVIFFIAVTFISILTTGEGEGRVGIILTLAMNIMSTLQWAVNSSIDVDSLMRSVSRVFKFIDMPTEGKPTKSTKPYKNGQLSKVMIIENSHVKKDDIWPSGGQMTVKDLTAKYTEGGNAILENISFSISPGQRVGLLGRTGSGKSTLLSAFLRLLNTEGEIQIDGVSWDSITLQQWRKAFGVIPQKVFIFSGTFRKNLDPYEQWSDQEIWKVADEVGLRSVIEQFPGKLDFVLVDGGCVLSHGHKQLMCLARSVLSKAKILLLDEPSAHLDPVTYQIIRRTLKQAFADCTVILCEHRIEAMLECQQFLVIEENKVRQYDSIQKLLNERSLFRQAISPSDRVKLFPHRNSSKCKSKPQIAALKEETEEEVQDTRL
Cystic fibrosis transmembrane conductance regulator (Homo sapiens, UniProt P13569, F508DEL), sequence (P13569 as listed by the source): as above
T1 sequence (P13569 as listed by the source): as above

Compound | Activity [1] | other results
CSc1cccc(Nc2nc(-c3ccc4sccc4c3)cs2)c1 | Active | 
CSc1cccc(Nc2nc(-c3ccc(F)cc3)cs2)c1 | inactive | EC50 [2]: 27 µM; EC50 [3]: Not Active
CSc1cccc(Nc2nc(-c3ccc4c(c3)OCO4)cs2)c1 | inactive | EC50 [2]: 71 µM; EC50 [3]: Not Active
CSc1cccc(Nc2nc(-c3ccc(-c4ccccn4)s3)cs2)c1 | inactive | 
CSc1cccc(Nc2nc(-c3cc(Cl)ccc3Cl)cs2)c1 | inactive | 
CSc1cccc(Nc2nc(-c3ccc(CCCl)cc3)cs2)c1 | inactive | 
CSc1cccc(Nc2nc(-c3ccc(F)c(Cl)c3)cs2)c1 | Active | 
CSc1cccc(Nc2nc(-c3cccc(OCC(=O)O)c3)cs2)c1 | inactive | 
CSc1cccc(Nc2nc(-c3ccc(C)cc3C)cs2)c1 | inactive | 
CCCSc1cccc(Nc2nc(-c3cccc(Cl)c3)cs2)c1 | inactive | 
CSc1cccc(Nc2nc(-c3ccc(Cl)cc3Cl)cs2)c1 | inactive | 
CSc1cccc(Nc2nc(-c3ccccc3)c(C)s2)c1 | inactive | 
CCc1ccc(Nc2nc(-c3cccc(Cl)c3)cs2)cc1SC | Active | 
CSc1cccc(Nc2nc(-c3cccc(Br)c3)cs2)c1 | Active | 
CSc1cccc(Nc2nc(-c3ccc4c(c3)ncn4C)cs2)c1 | inactive | 
COc1cc2c(cc1OC)CN(c1csc(Nc3cccc(SC)c3)n1)CC2 | inactive | 
CSc1cccc(Nc2nc(-c3cccc(SC)c3)cs2)c1 | inactive | 
CSc1cccc(Nc2nc(-c3cccnc3)cs2)c1 | inactive | 
CSc1cccc(Nc2nc(-c3cc(Cl)cc(Cl)c3O)cs2)c1 | inactive | 
Sc1cccc(Nc2nc(-c3cccc(Cl)c3)cs2)c1 | inactive | 
CSc1cccc(Nc2nc(-c3cn(-c4ccccc4)c(C)n3)cs2)c1 | inactive | 
CSc1cccc(Nc2nc(-c3cc(Cl)ccc3O)cs2)c1 | Active | 
CSc1cccc(Nc2nc(-c3cc(OC(C)=O)c(OC(C)=O)c(OC(C)=O)c3)cs2)c1 | inactive | 
CSc1cccc(Nc2nc(-c3nc(C)cs3)cs2)c1 | inactive | 
CSc1cccc(Nc2nc(-c3cc(F)cc(Cl)c3)cs2)c1 | inactive | 
CSc1cccc(Nc2nc(-c3cc4ccccc4oc3=O)cs2)c1 | inactive | 

Compound | Activity [1] | other results
CSc1cccc(Nc2nc(-c3ccco3)cs2)c1 | inactive | 
CSc1cccc(Nc2nc(-c3ccc(F)c(Br)c3)cs2)c1 | Active | EC50 [4]: Not Active
CSc1cccc(Nc2nc(-c3cc(Cl)cs3)cs2)c1 | inactive | EC50 [2]: 15 µM; EC50 [3]: Not Active
CSc1cccc(Nc2nc(C)cs2)c1 | inactive | 
Brc1ccc(-c2csc(NC3CCCCC3)n2)cc1 | inactive | 
O=C(Nc1nc(-c2ccc(Br)cc2)cs1)c1ccccc1O | inactive | 
CSc1cccc(Nc2nc(-c3cccc(C(F)(F)F)c3)cs2)c1 | inactive | 
COc1ccc(-c2csc(Nc3cccc(SC)c3)n2)c(OC)c1 | inactive | 
CSc1cccc(Nc2nc(-c3nc4ccccc4n3C)cs2)c1 | inactive | 
CSc1cccc(Nc2nc(-c3ccc(Br)c([N+](=O)[O-])c3)cs2)c1 | inactive | 
CSc1cccc(Nc2nc(-c3cc(C)cs3)cs2)c1 | inactive | 
CSc1cccc(Nc2nc(-c3ccc(Cl)c([N+](=O)[O-])c3)cs2)c1 | inactive | 
CSc1cccc(Nc2nc(-c3ccc4c(c3)NC(=O)CS4)cs2)c1 | inactive | 
CSc1cccc(Nc2nc(-c3cc(Cl)cc(C(F)(F)F)c3)cs2)c1 | Active | EC50 [4]: Not Active
CCN(CC)c1ccc(-c2csc(Nc3cccc(SC)c3)n2)cc1 | inactive | 
CSc1cccc(Nc2nc(-c3ccc([N+](=O)[O-])cc3)cs2)c1 | inactive | 
CSc1cccc(Nc2nc(-c3cnc(CS(=O)(=O)c4ccccn4)s3)cs2)c1 | inactive | 
CSc1cccc(Nc2nc(Cc3ccc(Br)cc3)cs2)c1 | inactive | 
CSc1cccc(Nc2nc(-c3cccc(OCC(=O)OC(C)(C)C)c3)cs2)c1 | inactive | 
CSc1cccc(Nc2nc(-c3ccccc3C)cs2)c1 | inactive | 
Brc1ccc(-c2csc(N(Cc3ccccc3)Cc3ccccc3)n2)cc1 | inactive | 
CSc1cccc(Nc2nc(-c3ccc(Br)cc3)c(C)s2)c1 | inactive | 
CSc1cccc(Nc2nc(-c3cc4ccccc4o3)cs2)c1 | inactive | 
CSc1cccc(Nc2nc(-c3ccc4c(c3)C(C)(C)CCC4(C)C)cs2)c1 | inactive | 
COc1ccc(-c2csc(Nc3cccc(SC)c3)n2)cc1 | inactive | 
Brc1ccc(-c2csc(NCc3ccccc3)n2)cc1 | inactive | 

Compound | Activity [1] | other results
CSc1cccc(Nc2nc(-c3cc(Cl)cc(Cl)c3F)cs2)c1 | inactive | 
CSc1cccc(Nc2nc(-c3cc(Cl)c(O)c(Cl)c3)cs2)c1 | Active | 
CSc1cccc(Nc2nc(-c3cccc(NC(C)=O)c3)cs2)c1 | inactive | 
CSc1cccc(N(Cc2ccccc2)c2nc(-c3cccc(Cl)c3)cs2)c1 | inactive | 
Nc1nc(-c2ccc(Br)cc2)cs1 | inactive | 
CCSc1cccc(Nc2nc(-c3cccc(Cl)c3)cs2)c1 | inactive | 
CSc1cccc(Nc2nc(-c3cccc(Cl)c3)c(C)s2)c1 | inactive | 
CSc1cccc(Nc2nc(-c3cc(Cl)cc(OC(F)(F)F)c3)cs2)c1 | inactive | 
CCCCCc1csc(-c2csc(Nc3cccc(SC)c3)n2)c1 | inactive | 
CSc1cccc(Nc2nc(-c3ccc(CC(F)(F)F)cc3)cs2)c1 | inactive | 
CSc1cccc(Nc2nc(-c3nc4ccccc4s3)cs2)c1 | inactive | 
CSc1cccc(Nc2nc(-c3cccc(C)c3)cs2)c1 | inactive | 
CSc1cccc(Nc2nc(-c3cc(OCC(=O)O)c(OCC(=O)O)c(OCC(=O)O)c3)cs2)c1 | inactive | 
CSc1cccc(Nc2nc(-c3ccccn3)cs2)c1 | inactive | 
CSc1cccc(Nc2nc(-c3cc(Br)ccc3O)cs2)c1 | inactive | 
CSc1cccc(Nc2nc(-c3nnn(-c4cc(Cl)cc(Cl)c4)c3C)cs2)c1 | inactive | 
CSc1cccc(Nc2nc(-c3cccc(O)c3)cs2)c1 | inactive | 
CSc1cccc(Nc2nc(-c3ccc(O)c(O)c3)cs2)c1 | inactive | 
CSc1cccc(Nc2nc(-c3ccc4c(c3)OCCO4)cs2)c1 | inactive | 
CSc1cccc(Nc2nc(-c3cc(C(C)(C)C)c(O)c(C(C)(C)C)c3)cs2)c1 | inactive | 
CSc1cccc(Nc2nc(-c3ccccc3)c(C(=O)c3ccccc3)s2)c1 | inactive | 
CSc1cccc(Nc2nc(-c3cccc(F)c3)cs2)c1 | inactive | 
CSc1cccc(Nc2nc(-c3cccc(Cl)c3Cl)cs2)c1 | inactive | 
CSc1cccc(Nc2nc(-c3c(-c4ccccc4)noc3C)cs2)c1 | inactive | 
CCCCCc1ccc(-c2csc(Nc3cccc(SC)c3)n2)cc1 | inactive | 
CSc1cccc(N(C)c2nc(-c3cccc(Cl)c3)cs2)c1 | inactive | 

Compound | Activity [1] | other results
COc1ccc(-c2csc(Nc3cccc(SC)c3)n2)cc1Cl | inactive | 
CSc1cccc(Nc2nc(-c3ccc(Cl)cc3)c(-c3ccc(C)cc3)s2)c1 | inactive | 
CSc1cccc(Nc2nc(-c3cc(C)n(-c4ccc(Cl)cc4)c3C)cs2)c1 | inactive | 
CSc1cccc(Nc2nc(-c3ccc(S(C)(=O)=O)cc3)cs2)c1 | inactive | 
CSc1cccc(Nc2nc(-c3cccc(I)c3)cs2)c1 | inactive | 
CCCOc1ccc(-c2csc(Nc3cccc(SC)c3)n2)cc1 | inactive | 
CSc1cccc(Nc2nc(-c3ccc4c(c3)OCCCO4)cs2)c1 | inactive | 
CSc1cccc(Nc2nc(-c3nccs3)cs2)c1 | inactive | EC50 [2]: 9.5 µM; EC50 [3]: Not Active
COc1ccccc1-c1csc(Nc2cccc(SC)c2)n1 | inactive | 
CSc1cccc(Nc2nc(-c3ccc(C(F)(F)F)cc3)cs2)c1 | inactive | 
CSc1cccc(Nc2nc(-c3ccc(C#N)cc3)cs2)c1 | inactive | EC50 [2]: 34 µM; EC50 [3]: Not Active
CSc1cccc(Nc2nc(-c3cc(-c4ccc(Cl)cc4)no3)cs2)c1 | inactive | 
CSc1cccc(Nc2nc(-c3ccsc3)cs2)c1 | inactive | 
CSc1cccc(Nc2nc(-c3c(Cl)ccc(F)c3Cl)cs2)c1 | inactive | 
CSc1cccc(Nc2nc(-c3cccc([N+](=O)[O-])c3)cs2)c1 | inactive | 
CC(=O)Oc1ccccc1C(=O)Nc1nc(-c2ccc(Br)cc2)cs1 | inactive | 
O=C(Nc1nc(-c2ccc(Br)cc2)cs1)c1ccncc1 | inactive | 
O=C(Nc1nc(-c2ccc(Br)cc2)cs1)c1ccccc1 | inactive | 
CSc1cccc(Nc2nc3ccc(Br)cc3s2)c1 | inactive | 
CSc1cccc(Nc2nc(-c3ccc(Cl)c(C)c3)cs2)c1 | inactive | 
CSc1cccc(Nc2nc(-c3cnc4ccccc4c3)cs2)c1 | inactive | 
CSc1cccc(Nc2nc(-c3ccccc3Cl)cs2)c1 | inactive | 
Brc1ccc(-c2csc(N3CCCCC3)n2)cc1 | inactive | 
CSc1cccc(Nc2nc(CC(=O)Nc3ccccc3)cs2)c1 | inactive | 
